In patent US10688128B2, “Use of Z-butylidenephthalide in activating autoimmune system” (EVERFRONT BIOTECH INC., priority 2016, dated 2020):

Legend:
[1] = system: PDL-1 protein; assay: Expression of PDL-1 protein by Western Blotting, H1650 cell line; assay type: cell-based; settings: H1650 cell line (human non-small-cell lung cancer cells), various concentrations of Z-BP, 24 hours, actin internal control
Description: (§1) The RG2 cell line (rat malignant glioma cells), […] cell line (glioblastoma stem cells), Paca2 cell line (human pancreatic cancer cells), […] cell line (human non-small-cell lung cancer cells), or B16 cell line (mouse melanocytoma cells) were independently treated with various concentrations of Z-BP for 24 hours. Then, the proteins in the cells were extracted and the expressions of PDL-1 protein in the cancer cells treated with Z-BP were detected by Western Blotting. In addition, the expression of actin was detected and used as the internal control.

[2] = system: PDL-1 protein; assay: Expression of PDL-1 protein by Western Blotting, 1×M cell line; assay type: cell-based; settings: 1×M cell line (glioblastoma stem cells), various concentrations of Z-BP, 24 hours, actin internal control
Description: as §1

[3] = system: PDL-1 protein; assay: Expression of PDL-1 protein by Western Blotting, B16 cell line; assay type: cell-based; settings: B16 cell line (mouse melanocytoma cells), various concentrations of Z-BP, 24 hours, actin internal control
Description: as §1

[4] = system: PDL-1 protein; assay: Expression of PDL-1 protein by Western Blotting, RG2 cell line; assay type: cell-based; settings: RG2 cell line (rat malignant glioma cells), various concentrations of Z-BP, 24 hours, actin internal control
Description: as §1

[5] = system: PDL-1 protein; assay: Expression of PDL-1 protein by Western Blotting, Paca2 cell line; assay type: cell-based; settings: Paca2 cell line (human pancreatic cancer cells), various concentrations of Z-BP, 24 hours, actin internal control
Description: as §1

[6] = system: stage three or four melanoma; settings: patients with stage three or four melanoma, Ipilimumab alone; cited from earlier work

Row | Compound | expression of PDL-1 protein [1] | expression of PDL-1 protein [2] | expression of PDL-1 protein [3] | expression of PDL-1 protein [4] | expression of PDL-1 protein [5] | overall survival rate increased [6] [months]
1 | CCC/C=C1\OC(=O)c2ccccc21 [Z-BP, Z-butylidenephthalide] | significantly decreased | significantly decreased | significantly decreased | significantly decreased | significantly decreased | –
2 | Ipilimumab | – | – | – | – | – | 10.1
